Laboratory results reported in patent US20160257697A1, “THIOPHENE-SUBSTITUTED TETRACYCLIC COMPOUNDS AND METHODS OFUSE THEREOF FOR THE TREATMENT OF VIRAL DISEASES” (priority 2013, published 2016).
Read-outs that look alike come from different tables or passages of the source.

What was measured:
Test in all cases: microbe, parasite or virus in culture
Format in all cases: cell-based, Hepatitis C virus (HCV)
HCV replicon 2B = conditions: Replicon Assay A
Summary of the method: (§1)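 Read-out is replicon RNA per cell by real-time RT-PCR, normalised to cyclophilin mRNA amplified in the same well. Cells were exposed to compound for 3 days at 2000 cells/well in medium with 5% fetal bovine serum and 0.5% DMSO.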

HCV replicon 1AY93H = conditions: Replicon Assay A
Summary of the method: as §1

HCV replicon 1A = conditions: Replicon Assay A
Summary of the method: as §1

HCV replicon 1AQ30D = conditions: Replicon Assay B
HCV replicon 1B = conditions: Replicon Assay B
[1] = read-out: 2B IC50, HCV replicon 2B
[2] = read-out: 1A Y93H IC50, HCV replicon 1A Y93H
[3] = read-out: 1A Q30D IC50, HCV replicon 1A Q30D
[4] = Hepatitis C virus, read-out: 2B IC50 (nM), replicon 2B
[5] = Hepatitis C virus, read-out: 1A Y93H IC50 (nM), replicon 1AY93H
[6] = Hepatitis C virus, read-out: 1A Q30D IC50 (nM), replicon 1AQ30D
[7] = replicon 1AY93H, read-out: 1A Y93H IC50
[8] = replicon 1AQ30D, read-out: 1A Q30D IC50
[9] = read-out: 1A Y93H IC50, replicon 1AY93H
[10] = read-out: 1A Q30D IC50, replicon 1AQ30D
[11] = Hepatitis C virus, HCV replicon 1B

Compound | IC50 (HCV replicon 1B; Hepatitis C virus, replicon 1B) [nM] | IC50 (HCV replicon 1A; replicon 1A) [nM] | IC50 (HCV replicon 1B; replicon 1B) [nM] | IC50 (HCV replicon 2B; read-out: 2B IC50, replicon 2B) [nM] | IC50 (HCV replicon 1AY93H; [9]) [nM] | IC50 (HCV replicon 1AQ30D; [10]) [nM] | further results
COC(=O)NC(C(=O)N1CCC[C@H]1c1ncc(-c2ccc3c(c2)cc2n3C(c3ccc(C4CCCC4)s3)Oc3cc(-c4cnc([C@@H]5CCCN5C(=O)[C@@H](NC(=O)OC)C(C)C)[nH]4)cc(F)c3-2)[nH]1)C1C[C@@H](C)O[C@@H](C)C1 (single isomer, unassigned) [Compound 657] |  |  |  |  |  |  | IC50 (HCV replicon 2B; [1]): 0.0941 nM; IC50 (HCV replicon 1AY93H; [2]): 0.105 nM; IC50 (HCV replicon 1A; HCV replicon 1A): 0.0025 nM; IC50 (HCV replicon 1AQ30D; [3]): 1.14 nM; IC50 (HCV replicon 1B; HCV replicon 1B): 0.0037 nM
COC(=O)N[C@H](C(=O)N1CCC[C@H]1c1ncc(-c2cc(F)c3c(c2)OC(c2ccc(C(F)F)s2)n2c-3cc3cc(-c4cnc([C@@H]5CCCN5C(=O)[C@@H](NC(=O)OC)C(C)C)[nH]4)ccc32)[nH]1)C(C)C (single isomer, unassigned) [Compound 46] | 0.001 |  |  |  |  |  | IC50 (HCV replicon 2B; [4]): 1.79 nM; IC50 (HCV replicon 1AY93H; [5]): 2.6 nM; IC50 (HCV replicon 1A; Hepatitis C virus, replicon 1A): 0.0029 nM; IC50 (HCV replicon 1AQ30D; [6]): 17.1 nM
COC(=O)N[C@H](C(=O)N1CCC[C@H]1c1ncc(-c2cc(F)c3c(c2)OC(c2ccc(C(F)F)s2)n2c-3cc3cc(-c4cnc([C@@H]5CCCN5C(=O)[C@@H](NC(=O)OC)C(C)C)[nH]4)ccc32)[nH]1)C(C)C (single isomer, unassigned) [Compound 45] |  | 0.0011 | 0.0011 |  |  |  | IC50 (HCV replicon 2B; replicon 2B, read-out: 2B IC50): 0.044 nM; IC50 (HCV replicon 1AY93H; [7]): 0.01 nM; IC50 (HCV replicon 1AQ30D; [8]): 0.37 nM
CCc1ccc(C2Oc3cc(-c4cnc([C@@H]5CCCN5C(=O)C(NC(=O)OC)C5CCOC(C)(C)C5)[nH]4)cc(F)c3-c3cc4cc(-c5cnc([C@@H]6CCCN6C(=O)[C@@H](NC(=O)OC)C(C)C)[nH]5)ccc4n32)s1 (single isomer, unassigned) [Compound 163] |  | 0.0184 | 0.0313 | 0.063 | 0.058 | 0.17 | 
COC(=O)NC(C(=O)N1CCC[C@H]1c1ncc(-c2ccc3c(c2)cc2n3C(c3ccc(CC4CC4)s3)Oc3cc(-c4cnc([C@@H]5CCCN5C(=O)[C@@H](NC(=O)OC)C(C)C)[nH]4)cc(F)c3-2)[nH]1)C1CCO[C@H](C)C1 (stereo partly drawn) [Compound 368] |  | 0.0026 | 0.0031 | 0.0028 | 0.0047 | 0.0304 | 
COC(=O)N[C@H](C(=O)N1CCC[C@H]1c1ncc(-c2cc(F)c3c(c2)OC(c2cc(F)c(C4CC4)s2)n2c-3cc3cc(-c4cnc([C@@H]5CCCN5C(=O)[C@@H](NC(=O)OC)C(C)C)[nH]4)ccc32)[nH]1)C(C)C (single isomer, unassigned) [Compound 72] | 0.0015 | 0.0026 |  | 0.089 | 0.01 |  | IC50 (HCV replicon 1AQ30D; [6]): 0.78 nM
COC(=O)N[C@H](C(=O)N1CCC[C@H]1c1ncc(-c2ccc3c(c2)cc2n3C(c3ccc(C4CC4)s3)Oc3cc(-c4cnc([C@@H]5CCCN5C(=O)[C@@H](NC(=O)OC)C5CCOCC5)[nH]4)cc(C)c3-2)[nH]1)C(C)C (single isomer, unassigned) [Compound 123] |  | 0.0012 | 0.0031 | 0.064 | 0.59 | 0.38 | 
COC(=O)NC(C(=O)N1[C@@H]2C[C@@H]2C[C@H]1c1ncc(-c2ccc3c(c2)cc2n3C(c3ccc(C4CC4)s3)Oc3cc(-c4cnc([C@@H]5CCCN5C(=O)[C@@H](NC(=O)OC)C(C)C)[nH]4)cc(F)c3-2)[nH]1)C1C[C@@H](C)O[C@@H](C)C1 (single isomer, unassigned) [Compound 273] |  | 0.0015 | 0.002 | 0.74 | 0.18 | 2.06 | 
COC(=O)N[C@H](C(=O)N1CCC[C@H]1c1ncc(-c2cc(F)c3c(c2)OC(c2ccc(C(C)(C)C)s2)n2c-3cc3cc(-c4cnc([C@@H]5CCCN5C(=O)[C@@H](NC(=O)OC)C(C)C)[nH]4)ccc32)[nH]1)C(C)C (single isomer, unassigned) [Compound 63] |  | 0.0032 | 0.0024 |  |  |  | IC50 (HCV replicon 2B; replicon 2B, read-out: 2B IC50): 0.27 nM; IC50 (HCV replicon 1AY93H; [7]): 0.01 nM; IC50 (HCV replicon 1AQ30D; [8]): 0.34 nM
COC(=O)N[C@H](C(=O)N1CCC[C@@H]1c1ncc(-c2cc(F)c3c(c2)OC(c2ccc(C(C)C)s2)n2c-3cc3cc(-c4c[nH]c([C@@H]5CCCN5C(=O)[C@H](NC(=O)OC)C5C[C@@H](C)O[C@@H](C)C5)n4)ccc32)[nH]1)C(C)C (stereo partly drawn) [Compound 234] | 0.0028 | 0.0033 |  |  |  |  | IC50 (HCV replicon 2B; [4]): 0.02 nM; IC50 (HCV replicon 1AY93H; [5]): 0.004 nM; IC50 (HCV replicon 1AQ30D; [6]): 0.05 nM
COC(=O)NC(C(=O)N1[C@@H]2C[C@@H]2C[C@H]1c1ncc(-c2ccc3c(c2)c(F)c2n3C(c3ccc(C4CC4)s3)Oc3cc(-c4cnc([C@@H]5CCCN5C(=O)[C@@H](NC(=O)OC)C(C)C)[nH]4)ccc3-2)[nH]1)C1C[C@@H](C)O[C@@H](C)C1 (single isomer, unassigned) [Compound 644] |  |  |  |  |  |  | IC50 (HCV replicon 2B; [1]): 0.0272 nM; IC50 (HCV replicon 1AY93H; [2]): 0.005 nM; IC50 (HCV replicon 1A; HCV replicon 1A): 0.00257 nM; IC50 (HCV replicon 1AQ30D; [3]): 0.0889 nM; IC50 (HCV replicon 1B; [11]): 0.0013 nM
CCc1ccc(C2Oc3cc(-c4cnc([C@@H]5CCCN5C(=O)[C@@H](NC(=O)OC)C(C)C)[nH]4)cc(C)c3-c3cc4cc(-c5cnc([C@@H]6CCCN6C(=O)[C@@H](NC(=O)OC)C6CCOC(C)(C)C6)[nH]5)ccc4n32)s1 (single isomer, unassigned) [Compound 547] |  |  |  |  |  |  | IC50 (HCV replicon 2B; Hepatitis C virus, read-out: 2B IC50, HCV replicon 2B): 0.012 nM; IC50 (HCV replicon 1AY93H; Hepatitis C virus, read-out: 1A Y93H IC50, HCV replicon 1A Y93H): 0.13 nM; IC50 (HCV replicon 1A; Hepatitis C virus, HCV replicon 1A): 0.007 nM; IC50 (HCV replicon 1AQ30D; Hepatitis C virus, read-out: 1A Q30D IC50, HCV replicon 1A Q30D): 0.96 nM; IC50 (HCV replicon 1B; [11]): 0.007 nM
COC(=O)N[C@H](C(=O)N1CCC[C@H]1c1ncc(-c2cc(C)c3c(c2)OC(c2ccc(C4CC4)s2)n2c-3cc3cc(-c4cnc([C@@H]5CCCN5C(=O)[C@@H](NC(=O)OC)C(C)C)[nH]4)ccc32)[nH]1)C(C)C (single isomer, unassigned) [Compound 753] |  |  |  |  |  |  | IC50 (HCV replicon 2B; [1]): 0.023 nM; IC50 (HCV replicon 1AY93H; [2]): 0.06 nM; IC50 (HCV replicon 1A; HCV replicon 1A): 0.0057 nM; IC50 (HCV replicon 1AQ30D; [3]): 0.639 nM; IC50 (HCV replicon 1B; HCV replicon 1B): 0.002 nM
CCCc1ccc(C2Oc3cc(-c4cnc([C@@H]5CCCN5C(=O)[C@@H](NC(=O)OC)C(C)C)[nH]4)cc(F)c3-c3cc4cc(-c5cnc([C@@H]6CCCN6C(=O)[C@@H](NC(=O)OC)C6CCOCC6)[nH]5)ccc4n32)s1 (single isomer, unassigned) [Compound 346] | 0.0013 |  |  | 0.0374 | 0.0414 | 0.223 | IC50 (HCV replicon 1A; Hepatitis C virus, replicon 1A): 0.001 nM
COC(=O)N[C@H](C(=O)N1CCC[C@H]1c1ncc(-c2cc(F)c3c(c2)OC(c2ccsc2)n2c-3cc3cc(-c4cnc([C@@H]5CCCN5C(=O)[C@@H](NC(=O)OC)C(C)C)[nH]4)ccc32)[nH]1)C(C)C (single isomer, unassigned) [Compound 317] | 0.0016 |  |  | 0.94 | 0.11 |  | IC50 (HCV replicon 1A; Hepatitis C virus, replicon 1A): 0.0012 nM; IC50 (HCV replicon 1AQ30D; [6]): 2.58 nM
COC(=O)NC(C(=O)N1CCC[C@H]1c1ncc(-c2ccc3c(c2)cc2n3C(c3ccc(C4CC4)s3)Oc3cc(-c4cnc([C@@H]5CCCN5C(=O)[C@@H](NC(=O)OC)C(C)C)[nH]4)cc(F)c3-2)[nH]1)C1CN(C(=O)C2CC2)C1 (single isomer, unassigned) [Compound 267] | 0.0039 | 0.0035 |  | 0.012 | 0.013 |  | IC50 (HCV replicon 1AQ30D; [6]): 0.08 nM
COC(=O)NC(C(=O)N1CCC[C@H]1c1ncc(-c2ccc3c(c2)cc2n3C(c3ccc(C4CC4)s3)Oc3cc(-c4cnc([C@@H]5CCCN5C(=O)[C@@H](NC(=O)OC)C(C)C)[nH]4)cc(F)c3-2)[nH]1)C1CCOC(C)(C)C1 (stereo partly drawn) [Compound 219] |  | 0.0022 | 0.0032 | 0.005 | 0.003 | 0.034 | 
COC(=O)NC(C(=O)N1CCC[C@H]1c1ncc(-c2cc(F)c3c(c2)OC(c2ccc(C4CC4)s2)n2c-3cc3cc(-c4cnc([C@@H]5CCCN5C(=O)[C@@H](NC(=O)OC)C(C)C)[nH]4)ccc32)[nH]1)C1CCOC(C)(C)C1 (single isomer, unassigned) [Compound 214] | 0.0022 | 0.003 |  | 0.005 | 0.009 | 0.032 | 
